Laboratory results taken from patent US20180010188A1, “METHOD FOR DETECTING NONSENSE-MEDIATED RNA DECAY” (The Regents of the University of California, priority 2016, published 2018).

What was measured:
polysome integrity = experiment: Polysome fractionation by sucrose density gradient centrifugation; format: cell-based, mouse; conditions: 5 hours, DMSO 30
Description: In addition to altering gene expression via the IRE1-Xbp1s signaling pathway to retain homeostasis, ER stress also reduces global protein synthesis (Harding et al., 1999. Nature 397: 271-274; Ron D. 2002. J Clin Invest 110: 1383-1388; Wek et al., 2006. Biochem Soc Trans 34: 7-11). The dose of thapsigargin inhibiting NMD was as low as 20 nM, whereas according to the literature, thapsigargin has been widely used at 1 μM to induce ER stress. To assess whether the NMD-inhibiting thapsigargin doses also repressed translation, we performed ribosome fractionation using sucrose density gradient centrifugation and examined polysome integrity as an indicator of translational activity. […] The heavier polysomes (>4 ribosomes) were affected the most and further collapsed with increasing doses of thapsigargin. Polysome disintegration was also accompanied by increasing optical density values of 80S. To quantify the dose effect of thapsigargin, we drew a line from the peak of the disome to the peak of the polysome consisting of roughly 8 ribosomes based on relative elution time. We measured the angle of this line relative to a horizontal line through the disome peak and used the angle as an indicator of polysome integrity. This angle was 30 for DMSO-treated cells and decreased to 0, −18, −20, −30 and −40 in response to increasing thapsigargin concentrations of 0.01, 0.02, 0.05, 0.1 and 0.2 μM, respectively.
For polysome fractionation, 1.5×10^7 N2a cells in 20 ml N2a complete media were plated on 150 mm petri dishes overnight and treated with varying concentrations of thapsigargin the next day. Cycloheximide (Fisher Scientific, cat. no. 50490338) was added at a concentration of 100 μg/ml, and the cells were incubated for 10 min at 37° C. before lysate collection. The cells were washed twice with 10 ml cold 1×PBS containing 100 μg/ml cycloheximide then collected in 4 ml of the same cold PBS solution. The cells were lysed with 0.5 ml lysis buffer (20 mM Tris pH 7.5, 100 mM KCl, 5 mM MgCl2, 2 mM DTT, 100 μg/ml cycloheximide, 1% Triton X-100, 50 u/ml RNaseout and 1×EDTA-free protease inhibitor cocktail). Roughly 400 μl ([…]) of lysate was loaded onto premade sucrose gradients (60% to 15%) and balanced (within 0.5 mg) before ultracentrifugation at 4° C. and 237,000 g (50,000 rpm for a SW55 Ti rotor) for 1.5 hours. Products were carefully removed from the ultracentrifuge and fractionated with the apparatus consisting of the gradient fractionator (Brandel SYN-202), the ISCO absorbance detector (ISCO # UA-6, Lincoln, Nebr.) and the fraction collector (R1 Fraction Collector) at 2.0 sensitivity and 150 cm/h chart speed to record absorbance data and collect fractionations.

[1] = tested on: cryptic isoforms of A230046K03Rik, Mib1 and Usp15; experiment: Quantitative analysis of TDP-43-repressed cryptic exon splicing; format: cell-based, mouse
Source text: To investigate the possible compounding effect of ER stress on TDP-43-mediated cryptic isoforms, we examined the expression of TDP-43-repressed cryptic exons with and without thapsigargin treatment. We designed specific PCR primers flanking the previously reported cryptic exons of A230046K03Rik, Mib1 and Usp15 and performed capillary electrophoresis to measure the ratios of the cryptic isoforms to the normal isoforms. The splicing of cryptic exons was not detected in cells treated with control siRNA or DMSO but was drastically boosted by RNAi-mediated depletion of Tdp-43 (FIGS. 5A-E).
Neuro-2a (N2a) cells were maintained in N2a complete media consisting of L-glutamine-free Dulbecco's modified Eagle's medium (DMEM), 10% FBS and 1× GlutaMAX at 37° C. Thapsigargin (VWR, cat. no. 89161-410), ionomycin (Fisher Scientific, cat. no. AG-CN2-0416-M001) and ouabain octahydrate (Fisher Scientific, cat. no. 80055-364) were dissolved in DMSO and stored at −80° C. […]
We optimized the PCR cycle numbers for Psd-95 (28 cycles), A230046K03Rik, Mib1 and Usp15 and eventually used 29 cycles for relative quantification of the transcript isoforms. […] The molar abundance (nM) of each isoform was quantified using QIAxcel Screengel software v1.4. Splicing of the cryptic exon was determined using the following formula. […]

## C/C=C(/C)C(=O)O[C@H]1C(C)=C2[C@H]([C@@H]1OC(=O)CCCCCCC)[C@@](C)(OC(C)=O)C[C@H](OC(=O)CCC)[C@@]1(O)[C@H]2OC(=O)[C@@]1(C)O [thapsigargin]
Polysome integrity; 0.01 μM
  angle of disome-to-8-ribosome peak line (polysome integrity): 0
Polysome integrity; 0.02 μM
  angle of disome-to-8-ribosome peak line (polysome integrity): −18
Polysome integrity; 0.05 μM
  angle of disome-to-8-ribosome peak line (polysome integrity): −20
Polysome integrity; 0.1 μM
  angle of disome-to-8-ribosome peak line (polysome integrity): −30
Polysome integrity; 0.2 μM
  angle of disome-to-8-ribosome peak line (polysome integrity): −40
[1]; 0.2 μM thapsigargin
  level of cryptic isoforms in mock-transfected or control siRNA-transfected cells: no effect
[1]; 0.2 μM thapsigargin after siTdp43
  level of cryptic isoforms in TDP-43-deficient cells: further increased
